Like-named read-outs stand apart in the source and are kept apart here.
Assays:
[1] = target: T1, EZH2 Complex (Homo sapiens, UniProt Q15910); assay: HotSpot [3H]SAM filter-binding methyltransferase assay; type: biochemical
T1 construct: five-member complex, Flag-EED, other subunits His-tagged, insect cells; with Zinc finger protein AEBP2; Polycomb protein EED; Polycomb protein SUZ12

[2] = target: ASH1L (Homo sapiens, UniProt Q9NR48); assay: as above; type: biochemical; parameters: residues 2046-2330, N-terminal His tag, E. coli
[3] = target: T2, NSD2 (Homo sapiens, UniProt O96028, E1099K); assay: biochemical; parameters: MTase-Glo bioluminescence methyltransferase assay, full-length NSD2 with HeLa nucleosomes; settings: read-out: MTase-Glo IC50
T2 construct: full length (residues 2-1365), N-terminal His tag, insect cell/baculovirus
T2 sequence (O96028 2-1365 E1099K): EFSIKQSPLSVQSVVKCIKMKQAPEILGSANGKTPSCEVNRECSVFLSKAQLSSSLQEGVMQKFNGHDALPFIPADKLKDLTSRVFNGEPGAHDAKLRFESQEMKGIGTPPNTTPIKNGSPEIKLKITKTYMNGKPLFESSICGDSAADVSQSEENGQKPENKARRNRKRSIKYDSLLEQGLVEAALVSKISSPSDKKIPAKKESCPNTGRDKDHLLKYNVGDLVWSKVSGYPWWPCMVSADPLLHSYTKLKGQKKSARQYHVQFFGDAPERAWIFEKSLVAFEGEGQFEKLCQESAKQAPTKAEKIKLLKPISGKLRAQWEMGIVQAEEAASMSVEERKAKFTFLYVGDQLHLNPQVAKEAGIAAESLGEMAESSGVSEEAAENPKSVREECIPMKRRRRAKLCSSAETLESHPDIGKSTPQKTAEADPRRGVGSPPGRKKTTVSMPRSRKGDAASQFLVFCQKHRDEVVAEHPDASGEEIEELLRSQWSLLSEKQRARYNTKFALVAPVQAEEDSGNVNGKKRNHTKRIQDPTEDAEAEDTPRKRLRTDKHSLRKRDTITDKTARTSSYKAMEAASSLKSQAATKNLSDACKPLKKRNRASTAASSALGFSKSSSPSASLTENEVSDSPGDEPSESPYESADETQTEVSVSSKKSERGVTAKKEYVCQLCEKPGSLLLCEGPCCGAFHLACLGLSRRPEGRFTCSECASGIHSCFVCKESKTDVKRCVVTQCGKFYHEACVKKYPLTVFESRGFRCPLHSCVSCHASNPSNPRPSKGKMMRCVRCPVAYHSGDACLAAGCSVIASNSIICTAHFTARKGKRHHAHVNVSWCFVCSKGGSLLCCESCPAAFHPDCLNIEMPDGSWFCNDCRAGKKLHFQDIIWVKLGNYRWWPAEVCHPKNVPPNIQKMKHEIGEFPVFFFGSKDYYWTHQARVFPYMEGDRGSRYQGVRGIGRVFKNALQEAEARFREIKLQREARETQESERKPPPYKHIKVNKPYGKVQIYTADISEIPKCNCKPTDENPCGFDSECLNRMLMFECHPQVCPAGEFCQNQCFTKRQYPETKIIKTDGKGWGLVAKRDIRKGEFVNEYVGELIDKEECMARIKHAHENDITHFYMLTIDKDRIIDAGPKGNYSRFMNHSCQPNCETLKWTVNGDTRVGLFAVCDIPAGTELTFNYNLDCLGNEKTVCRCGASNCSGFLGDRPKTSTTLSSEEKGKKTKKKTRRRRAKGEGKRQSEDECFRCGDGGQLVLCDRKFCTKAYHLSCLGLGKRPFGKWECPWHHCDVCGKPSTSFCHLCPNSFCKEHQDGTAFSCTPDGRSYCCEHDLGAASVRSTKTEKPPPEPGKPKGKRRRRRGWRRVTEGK
Description: A major challenge in screening for small molecule inhibitors is that native NSD2 requires nucleosomes as a substrate ([17]). […] Chemical libraries were screened in 3-dose point quantitative high-throughput screening (qHTS) format ([43]) with the Methyltransferase-Glo (MTase-Glo™) methyltransferase bioluminescence assay ([44]). A number of counter and orthogonal assays were also developed to characterize the hits from the primary screen. Confirmed hits were validated with a radiolabeled SAM substrate-based NSD2 activity assay and further interrogated with binding studies by surface plasmon resonance (SPR), methyltransferase profiling, and activity assessments in U-2 OS cells. […] Overall the reaction conditions were very similar.

[4] = target: T3, EZH2 Complex (Homo sapiens, UniProt Q15910, Y641F); assay: HotSpot [3H]SAM filter-binding methyltransferase assay; type: biochemical
T3 construct: five-member complex, Flag-EED, other subunits His-tagged, insect cells; with Zinc finger protein AEBP2; Polycomb protein EED; Polycomb protein SUZ12
T3 sequence (Q15910 2-746 Y641F): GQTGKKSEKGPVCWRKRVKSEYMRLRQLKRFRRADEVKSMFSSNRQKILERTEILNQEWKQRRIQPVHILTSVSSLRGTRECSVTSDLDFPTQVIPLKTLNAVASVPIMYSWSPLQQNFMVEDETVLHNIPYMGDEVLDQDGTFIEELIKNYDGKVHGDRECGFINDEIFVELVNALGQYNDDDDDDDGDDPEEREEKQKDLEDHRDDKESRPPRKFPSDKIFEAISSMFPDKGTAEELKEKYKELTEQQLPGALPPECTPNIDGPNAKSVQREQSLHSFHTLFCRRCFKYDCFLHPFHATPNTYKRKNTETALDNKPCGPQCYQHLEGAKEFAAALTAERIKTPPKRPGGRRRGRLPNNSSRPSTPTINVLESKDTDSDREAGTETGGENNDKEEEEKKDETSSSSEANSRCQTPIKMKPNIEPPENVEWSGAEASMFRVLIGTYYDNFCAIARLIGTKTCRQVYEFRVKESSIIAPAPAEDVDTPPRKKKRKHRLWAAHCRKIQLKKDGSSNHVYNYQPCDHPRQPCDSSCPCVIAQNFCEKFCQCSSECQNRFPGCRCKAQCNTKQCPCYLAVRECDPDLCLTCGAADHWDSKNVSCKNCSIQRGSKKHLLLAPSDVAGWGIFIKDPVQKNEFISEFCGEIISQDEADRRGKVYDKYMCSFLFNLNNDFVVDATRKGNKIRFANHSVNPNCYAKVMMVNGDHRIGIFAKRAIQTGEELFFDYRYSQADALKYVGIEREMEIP
T3 sequence (O75530 2-441 partner): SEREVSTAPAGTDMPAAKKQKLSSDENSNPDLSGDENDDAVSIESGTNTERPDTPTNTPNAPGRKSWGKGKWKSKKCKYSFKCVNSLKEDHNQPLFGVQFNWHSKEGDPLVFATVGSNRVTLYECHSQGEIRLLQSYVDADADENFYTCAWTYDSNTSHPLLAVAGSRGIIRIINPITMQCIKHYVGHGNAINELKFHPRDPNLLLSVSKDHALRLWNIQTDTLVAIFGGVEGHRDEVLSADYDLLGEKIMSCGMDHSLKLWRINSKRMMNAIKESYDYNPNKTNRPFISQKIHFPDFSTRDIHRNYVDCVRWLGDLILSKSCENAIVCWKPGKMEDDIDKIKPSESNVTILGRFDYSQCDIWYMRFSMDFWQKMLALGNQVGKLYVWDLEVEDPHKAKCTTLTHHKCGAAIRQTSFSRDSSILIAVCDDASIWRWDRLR
T3 sequence (Q15022 2-739 partner): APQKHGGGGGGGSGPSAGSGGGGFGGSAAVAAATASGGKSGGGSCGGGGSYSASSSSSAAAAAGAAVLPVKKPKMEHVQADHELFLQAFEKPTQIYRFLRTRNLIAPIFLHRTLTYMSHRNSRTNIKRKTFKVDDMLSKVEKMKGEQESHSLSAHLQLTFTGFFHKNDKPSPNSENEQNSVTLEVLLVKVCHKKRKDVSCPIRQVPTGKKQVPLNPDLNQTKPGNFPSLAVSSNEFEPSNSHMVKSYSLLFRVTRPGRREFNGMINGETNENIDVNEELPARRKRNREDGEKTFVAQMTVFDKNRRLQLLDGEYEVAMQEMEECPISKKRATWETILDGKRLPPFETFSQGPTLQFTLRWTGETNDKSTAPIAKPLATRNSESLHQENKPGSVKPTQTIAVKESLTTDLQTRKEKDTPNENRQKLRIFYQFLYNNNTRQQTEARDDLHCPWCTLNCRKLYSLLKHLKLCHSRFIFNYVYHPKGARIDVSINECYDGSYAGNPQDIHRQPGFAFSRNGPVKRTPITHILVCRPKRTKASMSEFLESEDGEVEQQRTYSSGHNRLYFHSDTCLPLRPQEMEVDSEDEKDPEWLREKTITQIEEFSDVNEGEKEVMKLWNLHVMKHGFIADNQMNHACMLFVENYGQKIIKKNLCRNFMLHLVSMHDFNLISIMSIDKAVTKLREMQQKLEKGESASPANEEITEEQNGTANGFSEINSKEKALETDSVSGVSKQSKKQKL
T3 sequence (Q09028 2-425 partner): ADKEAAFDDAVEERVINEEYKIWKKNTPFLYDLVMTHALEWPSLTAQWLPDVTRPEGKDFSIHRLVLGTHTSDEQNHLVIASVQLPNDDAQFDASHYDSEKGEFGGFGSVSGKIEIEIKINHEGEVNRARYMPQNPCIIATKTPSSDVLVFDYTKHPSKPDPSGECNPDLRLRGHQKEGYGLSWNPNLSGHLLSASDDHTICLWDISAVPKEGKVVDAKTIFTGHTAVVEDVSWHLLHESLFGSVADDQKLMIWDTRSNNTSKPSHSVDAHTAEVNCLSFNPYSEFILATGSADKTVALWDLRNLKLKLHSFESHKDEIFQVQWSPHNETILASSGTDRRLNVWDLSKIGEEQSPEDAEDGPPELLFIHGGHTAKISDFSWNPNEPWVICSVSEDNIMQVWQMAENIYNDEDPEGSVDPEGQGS
T3 sequence (Q6ZN18 2-517 partner): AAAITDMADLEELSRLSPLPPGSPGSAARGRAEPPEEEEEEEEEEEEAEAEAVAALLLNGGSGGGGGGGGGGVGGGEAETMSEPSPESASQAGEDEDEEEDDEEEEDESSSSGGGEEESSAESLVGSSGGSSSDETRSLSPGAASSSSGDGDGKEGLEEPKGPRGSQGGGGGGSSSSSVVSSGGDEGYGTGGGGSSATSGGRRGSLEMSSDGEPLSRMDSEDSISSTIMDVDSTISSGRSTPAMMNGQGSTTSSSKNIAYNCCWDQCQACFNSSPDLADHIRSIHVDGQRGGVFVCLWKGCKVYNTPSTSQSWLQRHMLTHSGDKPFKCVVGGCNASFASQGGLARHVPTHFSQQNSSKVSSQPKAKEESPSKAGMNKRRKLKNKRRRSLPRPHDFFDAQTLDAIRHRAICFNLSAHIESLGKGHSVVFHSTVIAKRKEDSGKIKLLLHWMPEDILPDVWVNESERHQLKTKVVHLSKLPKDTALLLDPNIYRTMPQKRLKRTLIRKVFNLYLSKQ

[5] = target: T2, NSD2; assay: as above; type: biochemical
[6] = nucleosomes, […] SAM, pH […] MgCl2, […] DTT, […] °C, single experiment
[7] = core histone, […] SAM, pH […] EDTA, […] DTT, […] °C, single experiment

T1 sequence (Q15910 2-746): as the sequence (Q15910 2-746 Y641F) above, with F640Y counted along it
T1 sequence (O75530 2-441 partner): as the sequence (O75530 2-441 partner) above
T1 sequence (Q15022 2-739 partner): as the sequence (Q15022 2-739 partner) above
T1 sequence (Q09028 2-425 partner): as the sequence (Q09028 2-425 partner) above
T1 sequence (Q6ZN18 2-517 partner): as the sequence (Q6ZN18 2-517 partner) above

Row | IC50 [1] [µM] | IC50 [2] [µM] | IC50 ([3]; inhibitor) [µM] | IC50 [4] [µM] | IC50 [5, 6] [µM] | IC50 [3] [µM] | IC50 [5] [µM] | IC50 [1, 7] [µM] | IC50 [2, 6] [µM] | IC50 [4, 7] [µM] | Structure (SMILES)
1 | 0.46 | 0.2 | 2.8 | 0.68 | 0.11 |  |  |  |  |  | O=C1C(Cl)=C(NCCN2CCOCC2)C(=O)c2ncccc21 [DA3003-1]
2 | 23 | 3.3 |  | 21 |  | 15 | 2.2 |  |  |  | CC1(C)CCC(CN2CCN(c3ccc(C(=O)NS(=O)(=O)c4ccc(NCC5CCOCC5)c([N+](=O)[O-])c4)c(Oc4cnc5[nH]ccc5c4)c3)CC2)=C(c2ccc(Cl)cc2)C1 [ABT-199]
3 |  |  |  |  | 7.2 |  |  | 40 | 9.2 | 31 | COc1cccc(-n2nc(C(=O)O)cc2-c2ccc(C3CCCCC3)c(Cl)c2)c1 [TC LPA5 4]

Reference: article doi:10.1101/208439v1 (biorxiv, 2017)
